Test results published in PubChem BioAssay (NCI).
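Step 1: Grow cells in 96-well plates. Step 2: Expose to compound for 48 hours at 5 concentrations. Step 3: Interpolate endpoints linearly; if unreached, use highest concentration. Definition used: TGI = concentration required for complete inhibition of growth.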

Columns and labels:
Test in all cases: NCI tumour cell line growth inhibition, 48 h
786-0 renal = system: 786-0 renal
A498 renal = system: A498 renal
A549 NSCLC = system: A549 NSCLC
ACHN renal = system: ACHN renal
BT-549 breast = system: BT-549 breast
CAKI-1 renal = system: CAKI-1 renal
CCRF-CEM leukemia = system: CCRF-CEM leukemia
COLO 205 colon = system: COLO 205 colon
DU-145 prostate = system: DU-145 prostate
EKVX NSCLC = system: EKVX NSCLC
HCT-116 colon = system: HCT-116 colon
HCT-15 colon = system: HCT-15 colon
HOP-62 NSCLC = system: HOP-62 NSCLC
HOP-92 NSCLC = system: HOP-92 NSCLC
HS 578T breast = system: HS 578T breast
HT29 colon = system: HT29 colon
IGROV1 ovarian = system: IGROV1 ovarian
K-562 leukemia = system: K-562 leukemia
KM12 colon = system: KM12 colon
LOX IMVI melanoma = system: LOX IMVI melanoma
M14 melanoma = system: M14 melanoma
MALME-3M melanoma = system: MALME-3M melanoma
MDA-MB-231 breast = system: MDA-MB-231 breast
MDA-MB-435 = system: MDA-MB-435
MDA-N = system: MDA-N
MOLT-4 leukemia = system: MOLT-4 leukemia
NCI-H226 lung = system: NCI-H226 lung
NCI-H23 lung = system: NCI-H23 lung
NCI-H522 lung = system: NCI-H522 lung
NCI/ADR-RES ovarian = system: NCI/ADR-RES ovarian
OVCAR-3 ovarian = system: OVCAR-3 ovarian
OVCAR-4 ovarian = system: OVCAR-4 ovarian
OVCAR-5 ovarian = system: OVCAR-5 ovarian
OVCAR-8 ovarian = system: OVCAR-8 ovarian
PC-3 prostate = system: PC-3 prostate
RPMI-8226 leukemia = system: RPMI-8226 leukemia
RXF 393 renal = system: RXF 393 renal
SF-268 CNS = system: SF-268 CNS
SF-295 CNS = system: SF-295 CNS
SK-MEL-2 melanoma = system: SK-MEL-2 melanoma
SK-MEL-28 melanoma = system: SK-MEL-28 melanoma
SK-MEL-5 melanoma = system: SK-MEL-5 melanoma
SK-OV-3 ovarian = system: SK-OV-3 ovarian
SN12C renal = system: SN12C renal
SNB-19 CNS = system: SNB-19 CNS
SNB-75 CNS = system: SNB-75 CNS
SR leukemia = system: SR leukemia
SW-620 colon = system: SW-620 colon
T-47D breast = system: T-47D breast
TK-10 renal = system: TK-10 renal
U251 CNS = system: U251 CNS
UACC-257 melanoma = system: UACC-257 melanoma
UACC-62 melanoma = system: UACC-62 melanoma
UO-31 renal = system: UO-31 renal
HCC-2998 colon = system: HCC-2998 colon
MCF7 breast = system: MCF7 breast
NCI-H460 lung = system: NCI-H460 lung
SF-539 CNS = system: SF-539 CNS
HL-60(TB) leukemia = system: HL-60(TB) leukemia

Measured: TGI

CCOC(=O)C(C)c1nc2c(Cl)c3ncccc3cc2[nH]c1=O (stereo unspecified)
99.2 µM: SR leukemia
> 100 µM: 786-0 renal | A498 renal | A549 NSCLC | ACHN renal | BT-549 breast | CAKI-1 renal | COLO 205 colon | DU-145 prostate | EKVX NSCLC | HCT-116 colon | HCT-15 colon | HOP-62 NSCLC | HOP-92 NSCLC | HT29 colon | IGROV1 ovarian | K-562 leukemia | KM12 colon | LOX IMVI melanoma | M14 melanoma | MALME-3M melanoma | MDA-MB-231 breast | MDA-MB-435 | MDA-N | MOLT-4 leukemia | NCI-H226 lung | NCI-H23 lung | NCI-H522 lung | NCI/ADR-RES ovarian | OVCAR-3 ovarian | OVCAR-4 ovarian | OVCAR-5 ovarian | OVCAR-8 ovarian | PC-3 prostate | RPMI-8226 leukemia | RXF 393 renal | SF-268 CNS | SF-295 CNS | SK-MEL-2 melanoma | SK-MEL-28 melanoma | SK-MEL-5 melanoma | SK-OV-3 ovarian | SN12C renal | SNB-19 CNS | SNB-75 CNS | SW-620 colon | T-47D breast | TK-10 renal | U251 CNS | UACC-257 melanoma | UACC-62 melanoma | UO-31 renal
90.4 µM: HS 578T breast
68.4 µM: CCRF-CEM leukemia

COC(=O)[C@H](Cc1ccccc1)NC(=O)c1ccc(CNC(=O)/C=C/c2cccc(Oc3ccccc3)c2)cc1
59.3 µM: SF-268 CNS
58.1 µM: CAKI-1 renal
28.3 µM: MDA-MB-435
40.4 µM: OVCAR-3 ovarian
27.7 µM: SK-MEL-2 melanoma
21.8 µM: UACC-257 melanoma
24.2 µM: RXF 393 renal
24 µM: UACC-62 melanoma
89.7 µM: HCC-2998 colon
51.7 µM: A498 renal
> 100 µM: 786-0 renal | A549 NSCLC | BT-549 breast | CCRF-CEM leukemia | DU-145 prostate | EKVX NSCLC | HCT-116 colon | HCT-15 colon | HOP-62 NSCLC | HT29 colon | K-562 leukemia | KM12 colon | MCF7 breast | MOLT-4 leukemia | NCI-H226 lung | NCI-H23 lung | NCI-H460 lung | NCI/ADR-RES ovarian | OVCAR-4 ovarian | OVCAR-5 ovarian | OVCAR-8 ovarian | PC-3 prostate | RPMI-8226 leukemia | SF-295 CNS | SK-OV-3 ovarian | SNB-19 CNS | SNB-75 CNS | SR leukemia | SW-620 colon | T-47D breast | U251 CNS | UO-31 renal
23.9 µM: SK-MEL-28 melanoma
30.4 µM: MALME-3M melanoma
40.2 µM: ACHN renal
46.3 µM: HS 578T breast
15.3 µM: MDA-N
42.6 µM: IGROV1 ovarian
30.8 µM: M14 melanoma
92.5 µM: TK-10 renal
42.1 µM: COLO 205 colon
36.9 µM: SK-MEL-5 melanoma
48.6 µM: MDA-MB-231 breast
75.9 µM: SN12C renal
21 µM: HOP-92 NSCLC

CCOC(=O)C1(C(=O)OCC)CCCN1C(=O)[C@H](CNC(=O)OC(C)(C)C)NC(=O)OCc1ccccc1
> 100 µM: 786-0 renal | A549 NSCLC | ACHN renal | BT-549 breast | CAKI-1 renal | CCRF-CEM leukemia | COLO 205 colon | DU-145 prostate | EKVX NSCLC | HCC-2998 colon | HCT-116 colon | HCT-15 colon | HOP-62 NSCLC | HS 578T breast | HT29 colon | IGROV1 ovarian | K-562 leukemia | KM12 colon | LOX IMVI melanoma | M14 melanoma | MCF7 breast | MDA-MB-231 breast | MDA-MB-435 | MDA-N | MOLT-4 leukemia | NCI-H226 lung | NCI-H23 lung | NCI-H460 lung | NCI/ADR-RES ovarian | OVCAR-3 ovarian | OVCAR-4 ovarian | OVCAR-5 ovarian | PC-3 prostate | RPMI-8226 leukemia | RXF 393 renal | SF-268 CNS | SF-295 CNS | SF-539 CNS | SK-MEL-2 melanoma | SK-MEL-28 melanoma | SK-MEL-5 melanoma | SK-OV-3 ovarian | SN12C renal | SNB-19 CNS | SNB-75 CNS | SR leukemia | SW-620 colon | T-47D breast | TK-10 renal | U251 CNS | UACC-257 melanoma | UO-31 renal

COc1cc([C@@H]2c3cc4c(cc3[C@@H](c3c(O)cc(O)c5c3O[C@H](c3ccc(O)c(O)c3)[C@@H](O)C5)[C@H]3COC(=O)[C@H]23)OCO4)cc(OC)c1O
> 100 µM: 786-0 renal | A498 renal | A549 NSCLC | ACHN renal | BT-549 breast | CAKI-1 renal | CCRF-CEM leukemia | COLO 205 colon | DU-145 prostate | EKVX NSCLC | HCC-2998 colon | HCT-116 colon | HCT-15 colon | HL-60(TB) leukemia | HOP-62 NSCLC | HOP-92 NSCLC | HS 578T breast | HT29 colon | IGROV1 ovarian | K-562 leukemia | KM12 colon | LOX IMVI melanoma | M14 melanoma | MALME-3M melanoma | MCF7 breast | MDA-MB-231 breast | MDA-MB-435 | MDA-N | MOLT-4 leukemia | NCI-H23 lung | NCI-H460 lung | NCI-H522 lung | NCI/ADR-RES ovarian | OVCAR-3 ovarian | OVCAR-4 ovarian | OVCAR-5 ovarian | OVCAR-8 ovarian | PC-3 prostate | RPMI-8226 leukemia | RXF 393 renal | SF-268 CNS | SF-295 CNS | SF-539 CNS | SK-MEL-2 melanoma | SK-MEL-28 melanoma | SK-MEL-5 melanoma | SK-OV-3 ovarian | SN12C renal | SNB-19 CNS | SW-620 colon | T-47D breast | TK-10 renal | U251 CNS | UACC-257 melanoma | UACC-62 melanoma
